This passage reports Ki results from patent publication US7723329B2, “Substituted-3-sulfonylindazole derivatives as 5-hydroxytryptamine-6 ligands” (Wyeth LLC, priority 2005, dated 2010).

The Ki is the equilibrium dissociation constant of an inhibitor or competing ligand from its target. Higher therefore signals a looser hold on the target.

Bounds are passed on as bounds.

This assay concerns the target T1, human cloned 5-HT6 receptors (Homo sapiens, UniProt P50406).
T1 construct: expressed in transfected cells; host or cells: HeLa cells
Briefly: 5-HT6 binding affinity, [3H]-LSD displacement. The note with it: membranes of Hela cells expressing human cloned 5-HT6 receptors; [3H]-LSD 3.0 nM; 120 minutes at room temperature. How it is done: The affinity of test compounds for the serotonin 5-HT6 receptor was evaluated in the following manner. Cultured Hela cells expressing human cloned 5-HT6 receptors were harvested and centrifuged at low speed (1,000×g) for 10.0 minutes to remove the culture media. The harvested cells were suspended in half volume of fresh physiological phosphate buffered saline solution and recentrifuged at the same speed. This operation was repeated. The collected cells were then homogenized in ten volumes of 50 mM Tris.HCl (pH 7.4) and 0.5 mM EDTA. The homogenate was centrifuged at 40,000×g for 30.0 min and the precipitate was collected. The obtained pellet was resuspended in 10 volumes of Tris.HCl buffer and recentrifuged at the same speed. The final pellet was suspended in a small volume of Tris.HCl buffer and the tissue protein content was determined in aliquots of 10-25 μl volumes. […] The volume of the suspended cell membranes was adjusted to give a tissue protein concentration of 1.0 mg/ml of suspension. The prepared membrane suspension (10 times concentrated) was aliquoted in 1.0 ml volumes and stored at −70° C. until used in subsequent binding experiments.
The bound complex caught on the filter disk was allowed to air dry and the radioactivity is measured in a Packard TopCount® equipped with six photomultiplier detectors, after the addition of 40.0 μl Microscint®-20 scintillant to each shallow well. The unifilter plate was heat-sealed and counted in a PackardTopCount® with a tritium efficiency of 31.0%.
Specific binding to the 5-HT6 receptor was defined as the total radioactivity bound less the amount bound in the presence of 10.0 μM unlabeled methiothepin. Binding in the presence of varying concentrations of test compound was expressed as a percentage of specific binding in the absence of test compound. The results were plotted as log % bound versus log concentration of test compound. […] A linear regression line of data points was plotted, from which the IC50 value is determined and the Ki value is determined based upon the following equation: Ki=IC50/(1+L/KD) where L was the concentration of the radioactive ligand used and KD is the dissociation constant of the ligand for the receptor, both expressed in nM.

T1 sequence (P50406 whole entry): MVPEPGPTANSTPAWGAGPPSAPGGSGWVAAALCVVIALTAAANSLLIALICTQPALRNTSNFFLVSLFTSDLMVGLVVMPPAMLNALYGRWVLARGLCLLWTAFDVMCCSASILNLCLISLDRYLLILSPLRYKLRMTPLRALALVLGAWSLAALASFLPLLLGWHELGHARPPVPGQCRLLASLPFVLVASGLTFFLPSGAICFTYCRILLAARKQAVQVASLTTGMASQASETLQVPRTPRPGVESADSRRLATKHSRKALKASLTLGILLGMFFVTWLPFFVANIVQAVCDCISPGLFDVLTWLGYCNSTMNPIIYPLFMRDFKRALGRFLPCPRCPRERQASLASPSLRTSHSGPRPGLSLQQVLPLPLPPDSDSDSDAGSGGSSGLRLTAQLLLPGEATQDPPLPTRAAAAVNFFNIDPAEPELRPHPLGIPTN

The molecule `CNCCOc1ccc2c(c1)c(S(=O)(=O)c1cccc3ccccc13)nn2C` [Example 40, Methyl-{2-[1-methyl-3-(naphthalene-1-sulfonyl)-1H-indazol-5-yloxy]-ethyl}-amine] had a Ki of 0.01 to 10 nM.

`CN(C)CCOc1ccc2c(c1)c(S(=O)(=O)c1cccc3ccccc13)nn2C` [Example 41, Dimethyl-{2-[1-methyl-3-(naphthalene-1-sulfonyl)-1H-indazol-5-yloxy]-ethyl}-amine] gave a Ki of 0.01 to 10 nM.

On to `CCN(C)CCOc1ccc2c(c1)c(S(=O)(=O)c1cccc3ccccc13)nn2C` [Example 42, Ethyl-methyl-{2-[1-methyl-3-(naphthalene-1-sulfonyl)-1H-indazol-5-yloxy]-ethyl}-amine], for which the Ki lay in the range of 0.01 to 10 nM.

As for `CCN(CC)CCOc1ccc2c(c1)c(S(=O)(=O)c1cccc3ccccc13)nn2C` [Example 43, Diethyl-{2-[1-methyl-3-(naphthalene-1-sulfonyl)-1H-indazol-5-yloxy]-ethyl}-amine], the Ki lay within 0.01 to 10 nM.

Take `CCNCCOc1ccc2c(c1)c(S(=O)(=O)c1cccc3ccccc13)nn2C` [Example 44, Ethyl-{2-[1-methyl-3-(naphthalene-1-sulfonyl)-1H-indazol-5-yloxy]-ethyl}-amine]: the Ki is 0.01 to 10 nM.

In the case of `CC(C)NCCOc1ccc2c(c1)c(S(=O)(=O)c1cccc3ccccc13)nn2C` [Example 45, Isopropyl-{2-[1-methyl-3-(naphthalene-1-sulfonyl)-1H-indazol-5-yloxy]-ethyl}-amine], the Ki was in the range of 0.01 to 10 nM.

On to `Cn1nc(S(=O)(=O)c2cccc3ccccc23)c2cc(OCCN3CCCC3)ccc21` [Example 46, 1-Methyl-3-(naphthalene-1-sulfonyl)-5-(2-pyrrolidin-1-yl-ethoxy)-1H-indazole], for which the Ki is 0.01 to 10 nM.

`CCN(C)CCOc1ccc2c(c1)c(S(=O)(=O)c1cccc3ccccc13)nn2Cc1ccccc1` [Example 47, {2-[1-Benzyl-3-(naphthalene-1-sulfonyl)-1H-indazol-5-yloxy]-ethyl}-ethyl-methyl-amine] gave a Ki of 26 to 35 nM.

In turn, `CNCCOc1ccc2c(c1)c(S(=O)(=O)c1cccc3ccccc13)nn2Cc1ccccc1` [Example 48, {2-[1-Benzyl-3-(naphthalene-1-sulfonyl)-1H-indazol-5-yloxy]-ethyl}-methyl-amine] showed a Ki of 26 to 35 nM.

As for `CC(C)NCCOc1ccc2c(c1)c(S(=O)(=O)c1cccc3ccccc13)nn2Cc1ccccc1` [Example 49, {2-[1-Benzyl-3-(naphthalene-1-sulfonyl)-1H-indazol-5-yloxy]-ethyl}-isopropyl-amine], the Ki was 26 to 35 nM.

Molecule `CCN(CC)CCOc1ccc2c(c1)c(S(=O)(=O)c1cccc3ccccc13)nn2Cc1ccccc1` [Example 50, {2-[1-Benzyl-3-(naphthalene-1-sulfonyl)-1H-indazol-5-yloxy]-ethyl}-diethyl-amine] registered a Ki of 36 to 45 nM.

With `CN(C)CCOc1ccc2c(c1)c(S(=O)(=O)c1cccc3ccccc13)nn2Cc1ccccc1` [Example 51, {2-[1-Benzyl-3-(naphthalene-1-sulfonyl)-1H-indazol-5-yloxy]-ethyl}-dimethyl-amine], the inhibition constant Ki fell in the range of 11 to 25 nM.

For `O=S(=O)(c1cccc2ccccc12)c1nn(Cc2ccccc2)c2ccc(OCCN3CCCC3)cc12` [Example 52, 1-Benzyl-3-(naphthalene-1-sulfonyl)-5-(2-pyrrolidin-1-yl-ethoxy)-1H-indazole], the Ki was above 45 nM.

In the case of `CCNCCOc1ccc2c(c1)c(S(=O)(=O)c1cccc3ccccc13)nn2Cc1ccccc1` [Example 53, {2-[1-Benzyl-3-(naphthalene-1-sulfonyl)-1H-indazol-5-yloxy]-ethyl}-ethyl-amine], the inhibitory constant (Ki) lay in the range of 11 to 25 nM.

As for `CN(C)CCOc1ccc2c(c1)c(S(=O)(=O)c1cccc3ccccc13)nn2Cc1cccc(Cl)c1` [Example 54, {2-[1-(3-Chloro-benzyl)-3-(naphthalene-1-sulfonyl)-1H-indazol-5-yloxy]-ethyl}-dimethyl-amine], the Ki was 11 to 25 nM.

On to `CCN(C)CCOc1ccc2c(c1)c(S(=O)(=O)c1cccc3ccccc13)nn2Cc1cccc(Cl)c1` [Example 55, {2-[1-(3-Chloro-benzyl)-3-(naphthalene-1-sulfonyl)-1H-indazol-5-yloxy]-ethyl}-ethyl-methyl-amine], for which the Ki was above 45 nM.

`CCN(CC)CCOc1ccc2c(c1)c(S(=O)(=O)c1cccc3ccccc13)nn2Cc1cccc(Cl)c1` [Example 56, {2-[1-(3-Chloro-benzyl)-3-(naphthalene-1-sulfonyl)-1H-indazol-5-yloxy]-ethyl}-diethyl-amine] yielded a Ki above 45 nM.

`CC(C)NCCOc1ccc2c(c1)c(S(=O)(=O)c1cccc3ccccc13)nn2Cc1cccc(Cl)c1` [Example 57, {2-[1-(3-Chloro-benzyl)-3-(naphthalene-1-sulfonyl)-1H-indazol-5-yloxy]-ethyl}-isopropyl-amine] yielded an inhibition constant Ki of 36 to 45 nM.

As to `O=S(=O)(c1cccc2ccccc12)c1nn(Cc2cccc(Cl)c2)c2ccc(OCCN3CCCC3)cc12` [Example 58, 1-(3-Chloro-benzyl)-3-(naphthalene-1-sulfonyl)-5-(2-pyrrolidin-1-yl-ethoxy)-1H-indazole], the Ki fell in the range of 26 to 35 nM.

In turn, `CNCCOc1ccc2c(c1)c(S(=O)(=O)c1cccc3ccccc13)nn2Cc1cccc(Cl)c1` [Example 59, {2-[1-(3-Chloro-benzyl)-3-(naphthalene-1-sulfonyl)-1H-indazol-5-yloxy]-ethyl}-methyl-amine] registered an inhibition constant Ki above 45 nM.

On to `CCNCCOc1ccc2c(c1)c(S(=O)(=O)c1cccc3ccccc13)nn2Cc1cccc(Cl)c1` [Example 60, {2-[1-(3-Chloro-benzyl)-3-(naphthalene-1-sulfonyl)-1H-indazol-5-yloxy]-ethyl}-ethyl-amine], for which the Ki lay within 11 to 25 nM.

The molecule `O=S(=O)(c1cccc2ccccc12)c1n[nH]c2ccc(OCCCCN3CCCCC3)cc12` [Example 61, 3-(1-naphthylsulfonyl)-5-(4-piperidin-1-ylbutoxy)-1H-indazole] showed a Ki of 0.01 to 10 nM.

Regarding `CCNCCCCOc1ccc2[nH]nc(S(=O)(=O)c3cccc4ccccc34)c2c1` [Example 63], the Ki was in the range of 0.01 to 10 nM.

`CN(C)CCCCOc1ccc2[nH]nc(S(=O)(=O)c3cccc4ccccc34)c2c1` [Example 64] returned a Ki of 0.01 to 10 nM.

Turning to `CCCN(C)CCCCOc1ccc2[nH]nc(S(=O)(=O)c3cccc4ccccc34)c2c1` [Example 65], the Ki was in the range of 0.01 to 10 nM.

For `CCN(CC)CCCCOc1ccc2[nH]nc(S(=O)(=O)c3cccc4ccccc34)c2c1` [Example 66], the inhibition constant (Ki) was 0.01 to 10 nM.

Take `O=S(=O)(c1cccc2ccccc12)c1n[nH]c2ccc(OCCCCN3CCCC3)cc12` [Example 67]: the Ki lay within 0.01 to 10 nM.

Consider `NCCCCOc1ccc2[nH]nc(S(=O)(=O)c3cccc4ccccc34)c2c1` [Example 68, (4-{[3-(1-naphthylsulfonyl)-1H-indazol-5-yl]oxy}butyl)amine], for which the Ki was in the range of 0.01 to 10 nM.

`NCCOc1cccc2c(S(=O)(=O)c3cccc4ccccc34)nn(Cc3cccc(Cl)c3)c12` [Example 69, (2-{[1-(3-Chlorobenzyl)-3-(1-naphthylsulfonyl)-1-H-indazol-7-yl]oxy}ethyl) amine] showed a Ki of 26 to 35 nM.

Molecule `CNCCOc1cccc2c(S(=O)(=O)c3cccc4ccccc34)nn(Cc3cccc(Cl)c3)c12` [Example 70, (2-{[1-(3-Chlorobenzyl)-3-(1-naphthylsulfonyl)-1-H-indazol-7-yl]oxy}ethyl) methylamine] had an inhibition constant Ki of 11 to 25 nM.

In turn, `NCCOc1cccc2c(S(=O)(=O)c3cccc4ccccc34)n[nH]c12` [Example 76, (2-{[3-(1-naphthylsulfonyl)-1-H-indazol-7-yl]oxy}ethyl)amine] gave a Ki of 0.01 to 10 nM.

`CNCCOc1cccc2c(S(=O)(=O)c3cccc4ccccc34)n[nH]c12` [Example 77]: the Ki fell in the range of 0.01 to 10 nM.

`CN(C)CCOc1cccc2c(S(=O)(=O)c3cccc4ccccc34)n[nH]c12` [Example 78] showed an inhibition constant (Ki) of 0.01 to 10 nM.

`CCNCCOc1cccc2c(S(=O)(=O)c3cccc4ccccc34)n[nH]c12` [Example 79] came in with a Ki of 11 to 25 nM.

Molecule `O=S(=O)(c1cccc2ccccc12)c1n[nH]c2c(OCCN3CCCCC3)cccc12` [Example 80] came in with a Ki of 0.01 to 10 nM.

`O=S(=O)(c1cccc2ccccc12)c1n[nH]c2c(OCCN3CCCC3)cccc12` [Example 81]: the Ki fell in the range of 0.01 to 10 nM.

In turn, `CNCCOc1cccc2c(S(=O)(=O)c3ccccc3)nn(Cc3cccc(Cl)c3)c12` [Example 82] came in with a Ki of 11 to 25 nM.

With `CCNCCOc1cccc2c(S(=O)(=O)c3ccccc3)nn(Cc3cccc(Cl)c3)c12` [Example 83], the Ki was in the range of 26 to 35 nM.

In turn, `CCN(CC)CCOc1cccc2c(S(=O)(=O)c3ccccc3)nn(Cc3cccc(Cl)c3)c12` [Example 84] yielded a Ki above 45 nM.

Regarding `CCCCNCCOc1cccc2c(S(=O)(=O)c3ccccc3)nn(Cc3cccc(Cl)c3)c12` [Example 85], the Ki is above 45 nM.
